# From publication PMC4632503, “Targeting of Helicobacter pylori thymidylate synthase ThyX by non-mitotoxic hydroxy-naphthoquinones” (Open Biology, 2015)
# “Also recorded” adds a separate entry of the source. Where two headings read alike, the source gives them in different places.
# Experiments:
# [1] = tolerance of orogastric treatment in infected mice; format: in vivo, NMRI mice; conditions: orogastric three times a day, 0.375 mg mouse day^−1, one week
# Procedure: (§1) NMRI-specific pathogen-free mice (Charles River Laboratories) were orogastrically inoculated with 10^8 CFU of the H. pylori mouse-adapted strain SS1, prepared in 100 μl of peptone broth. Four groups of six to eight mice were infected by H. pylori strain SS1. Earlier experiments have established that after one week, colonization of mice is fully established. A negative control group of five mice was inoculated with peptone broth alone and was not colonized by H. pylori. One week after infection, three groups of mice were treated orogastrically three times a day with 500 µl of either compound 010-C, 010-E or 010-I dissolved in 2% β-cyclodextrin at 0.25 mg ml^−1 (0.375 mg mouse d^−1) during one week. As a control, the fourth group of mice was treated orogastrically three times a day by the same amount of 2% β-cyclodextrin (17.6 mM), the vehicle of the compounds. […] This average size is in agreement with the average size of β-cyclodextrin particles that self-aggregate in water at a concentration of 12 mM [39]. After treatment, viable H. pylori cells, colonizing the mouse stomach, were enumerated by culture of serial dilutions of homogenized tissue on blood agar plates containing bacitracin (200 μg ml^−1) and nalidixic acid (10 μg ml^−1) as in [40].
# H. pylori strain SS1 [2] = test: MIC, broth microdilution test, strain SS1; format: cell-based; conditions: Helicobacter pylori, 24 h, read-out: minimal inhibitory concentration (MIC) strain SS1
# Procedure: (§2) The in vitro anti-bacterial activity of 2-OH-1,4-NQ compounds was assessed against the 26695 and SS1 strains of H. pylori. DMSO was used as control in all experiments.
# (§3) Disc diffusion tests were performed in triplicate, including a DMSO-only control on each plate, as specified in the electronic supplementary material. Minimal inhibitory concentrations (MICs) were determined using a broth microdilution test in 24-well microtitre plates. For test inocula, an overnight preculture of H. pylori strains 26695 and SS1 was diluted to an OD600 of approximately 0.1 and 0.5 ml of this suspension was transferred to each well. Ten microlitres of twofold serial dilutions of each compound in DMSO, ranging in concentration from 0.625 to 20 µg ml^−1, were added and the covered plates were incubated for 24 h at 37°C with orbital shaking at 140 r.p.m. under microaerophilic conditions. The MIC was determined as the lowest compound concentration resulting in full growth inhibition after 24 h of incubation. All the tests were done in triplicate, including cell-free and DMSO-only controls.
# AGS cells [3] = test: mitotoxicity, resazurin reduction; format: cell-based, human; conditions: for mitotoxicity: 0.78 to 50 μg ml^−1, 4 h treatment; for effect on mitochondrial metabolism: low concentrations, resazurin reduction
# Procedure: Mitochondrial toxicity (mitotoxicity) was assessed by measuring resazurin (7-hydroxy-3H-phenoxazin-3-one 10-oxide) reduction by following absorption changes at 570 nm (Mitochondrial Viability Assay; Abcam). Resazurin is an indicator dye that reports on oxidation–reduction reactions taking place in the mitochondria of living cells. AGS cells (≅2.5 × 10^5cells well^−1) cultured in a DMEM galactose/glutamine-supplemented medium were seeded in sterile white-walled 96-well clear-bottom microplates and treated for 4 h with different doses of 2-OH-1,4-NQ compounds ranging from 0.78 to 50 μg ml^−1. Addition of the stain solution was followed by a further 4 h incubation at 37°C (5% CO2, 90% humidity) and A570 was measured. Rotenone, an inhibitor of the mitochondrial respiratory chain complex I, was used as a positive control.
# H. pylori strain SS1 [4] = test: mouse infection and treatment, gastric colonization; format: in vivo, Helicobacter pylori; conditions: NMRI mice, orogastric three times a day, 0.375 mg mouse day^−1 (17 mg kg^−1), one week
# Procedure: as §1
# H. pylori strain 26695 = test: MIC, broth microdilution test, strain 26695; format: cell-based; conditions: Helicobacter pylori
# Procedure: as §2, §3
# HpThyX [5] = target: T1, HpThyX (Helicobacter pylori, UniProt O26061); test: NADPH oxidation assay; format: biochemical; conditions: estimated from slope of IC50 versus dUMP concentration
# T1 construct: His6; made in house; host or cells: Escherichia coli BL21 (plasmid pGL2, pBAD promoter)
# T1 sequence (O26061 whole entry): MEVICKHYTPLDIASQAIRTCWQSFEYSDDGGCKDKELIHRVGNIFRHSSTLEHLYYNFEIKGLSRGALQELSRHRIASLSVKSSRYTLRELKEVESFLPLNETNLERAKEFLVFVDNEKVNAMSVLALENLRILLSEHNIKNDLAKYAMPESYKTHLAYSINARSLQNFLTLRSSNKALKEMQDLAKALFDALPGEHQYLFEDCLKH
# Procedure: (§4) HpThyX activity was assessed by measuring either deprotonation of [5-^3H]dUMP or NAPDH oxidation activities.
# NADPH oxidation assays were performed at 37°C in 96-well plates (Greiner Bio-One). One hundred microlitres of reaction mixture contained HEPES 50 mM (pH 8.6), NaCl 150 mM, FAD 50 µM, β-mercaptoethanol 1.43 mM, NADPH 500 µM and 10 µM of purified HpThyX. dUMP and 2-OH-1,4-NQ concentrations were varied across 12.5–200 µM and 0.3–100 µM, respectively. Microtitre plates were prepared and transferred to the microplate reader Chameleon II (Hidex). The reactions were started by automatically injecting NADPH into individual wells and ThyX activity was determined by following a decrease in absorbance at 340 nm. A molar extinction coefficient of 6220 M^−1 cm^−1 at 340 nm (ε340) was used to quantify NADPH oxidation. Samples with added DMSO and enzyme-free reactions were used as positive and negative controls, respectively.
# HpThyX [6] = target: T1, HpThyX; test: tritium release (deprotonation) assay of [5-3H]dUMP; format: biochemical; conditions: for remaining activity at 100 µM: 20 min, semi-quantitative deprotonation assay, lower = stronger inhibition, read-out: inhibition against ThyX (% remaining activity relative to control); for dTMP-forming activity: quantitative tritium release assay, 100 μM compound, 10 μM ThyX enzyme
# Procedure: as §4
# In the tritium release (deprotonation) assays, typical reactions contained 10 mM MgCl2, 10% (v/v) glycerol, 500 µM FAD, 2 mM NADPH, 1 mM CH2H4Folate and 10 mM β-mercaptoethanol in 50 mM HEPES (pH 8). Different concentrations of dUMP were also included in the reaction mixtures. The specific activity of tritiated [5-^3H]dUMP (diammonium salt) stock was 15–30 Ci mmol^−1 (Moravek Biochemicals, CA, USA). 2-OH-1,4-NQ derivatives were prepared at 100 µM in 1% DMSO. Reactions were initiated by adding the enzyme (10 µM) and were stopped after 20 min incubation at 37°C.
# AGS cells [7] = test: cytotoxicity, LDH release; format: cell-based, human; conditions: 0.78 to 50 μg ml^−1, 24 h
# Procedure: Cytotoxicity of the 2-OH-1,4-NQ derivatives was assessed by measuring lactate dehydrogenase (LDH) release following manufacturer's instructions (Cytotoxicity Detection Kit; Roche Applied Sciences). Briefly, AGS cells (human gastric adenocarcinoma cell line; ATCC Catalog no. CRL-1739TM) were cultured in Ham's F-12 K medium containing 1% of FBS. A total of 3 × 10^4 cells were added per well in a sterile 96-well tissue culture plate. Cells were then treated with different doses of 2-OH-1,4-NQ compounds ranging from 0.78 to 50 μg ml^−1. After a 24 h incubation at 37°C (5% CO2, 90% humidity), the microplates were centrifuged at 250g for 10 min, and the supernatants were carefully removed and transferred into optically clear 96-well microplates (Greiner Bio-One). The dye solution containing iodotetrazolium chloride and sodium lactate was then added to each well to quantify the amount of LDH released into the extracellular medium. LDH was quantified by measuring the A490 using a PowerWave Microplate Spectrophotometer (BioTek).
# [8] = tested on: H. pylori strains 26695 and SS1; test: disc diffusion test; format: cell-based, Helicobacter pylori; conditions: 10 μg per disc, 72 h
# Procedure: as §3
# Figure S2. Disk diffusion antibiograms of H. pylori strains 26695 (A) and SS1 (B) with the 2-OH-1,4-NQ compounds. To perform these disc diffusion tests, an overnight culture of the H. pylori strain was diluted to an OD600 ≈ 0.01. Blood agar plates were flooded with 2 ml of the diluted suspension. […] The diameters of each growth inhibition zone were measured on the Petri dish. […]
# subtracting the disc diameter (6 mm) from the measured zone. […]
# H. pylori 26695 = test: bactericidal activity, viable counts (CFU) in liquid culture; format: cell-based, Helicobacter pylori; conditions: exposure up to 24 h, replating on solid media, listed as C8-C1
# Procedure: To determine the bactericidal activity of C8-C1 against H. pylori, liquid BHI medium was inoculated with an overnight culture of H. pylori 26695 at an initial OD600 of 0.1. C8-C1 or chloramphenicol, used as bacteriostatic control, were added after 4 h of culture time at final concentrations of 5 and 30 µg ml^−1. To determine the viable counts of surviving bacteria (colony forming units, CFU), aliquots of culture were then plated in triplicate on blood agar plates after 3 and 24 h exposure.
# [9] = 26695, 24 h, full growth inhibition, read-out: minimal inhibitory concentration (MIC) strain 26695
# [10] = 26695, 24 h, value in brackets, read-out: minimal inhibitory concentration (MIC) strain 26695
SMILES,tolerance in mice [1],effect on body or stomach weight ([1]; data not shown),MIC (H. pylori strain SS1 [2]; full growth inhibition) [µg/mL],MIC (H. pylori strain SS1 [2]; value in brackets) [µM],mitotoxicity (AGS cells [3]),effect on mitochondrial metabolism (AGS cells [3]),decrease in the colonization loads (geometric means) versus vehicle (H. pylori strain SS1 [4]) [log],decrease in the colonization loads versus vehicle (H. pylori strain SS1 [4]) [fold],MIC (H. pylori strain 26695; [9]) [µg/mL],MIC (H. pylori strain 26695; [10]) [µM],Ki (HpThyX [5]) [nM],remaining activity at 100 µM (HpThyX [6]) [%],dTMP-forming activity (HpThyX [6]),cytotoxicity (AGS cells [7]),activity in disc diffusion tests [8],"MIC (H. pylori strain 26695; liquid cultures, strains 26695 and SS1 not distinguished, read-out: MIC) [µg/mL]",kind of anti-microbial activity / viable cells after exposure (H. pylori 26695)
CCCCC1=C(O)C(=O)c2ccccc2C1=O [010-I],tolerated in mice,None of the aforementioned treatments affected either the body or stomach weight,10,43.4,non-mitotoxic,activated the mitochondrial metabolism,1.22,17,10,43.4,258,64.3,suppressed the dTMP-forming activity,non-cytotoxic,,,
O=C1C(Cl)=C(Nc2ccc(F)cc2)C(=O)c2ccccc21 [010-G],,,0.625,2.07,,,,,0.625,2.07,,21.1,,cytotoxic,inactive,~0.625,
"COc1ccc(CC2=C(O)C(=O)c3ccccc3C2=O)cc1 [007-A, 2-hydroxy-3-(4-methoxybenzyl)-1,4-naphthoquinone]",,,10,34,non-mitotoxic,activated the mitochondrial metabolism,,,10,34,367,38.5,suppressed the dTMP-forming activity,non-cytotoxic,,,no viable cells were recovered; also recorded: bactericidal
